Measurements reported in patent US8148388B2, “2,4 (4,6) pyrimidine derivatives” (Janssen Pharmaceutica, N.V., priority 2004, dated 2012).

Experiments:
Format in all cases: biochemical
Yes (h) = Yes (h) (Homo sapiens, UniProt P07947); test: Yes human kinase assay (glass-fiber filter); settings: test concentration of 10^−6M; for inhibition at 1 µM: read-out: C11 score (inhibition of Yes human)
Outline: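 Yes (h) (5-10 mU) with 0.1 mg/ml poly(Glu, Tyr) 4:1 in 8 mM MOPS pH 7.0, 0.2 mM EDTA, 10 mM MgAcetate and [γ-^33P-ATP], 40 minutes at room temperature. Stopped with phosphoric acid; substrate-bound ^33P counted on glass-fiber filter by scintillation.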

Lyn (h) = Lyn (h) (Homo sapiens, UniProt P07948); test: Lyn human kinase assay (glass-fiber filter); settings: test concentration of 10^−6M; for inhibition at 1 µM: read-out: C10 score (inhibition of Lyn human)
Lyn (h), sequence (P07948 whole entry): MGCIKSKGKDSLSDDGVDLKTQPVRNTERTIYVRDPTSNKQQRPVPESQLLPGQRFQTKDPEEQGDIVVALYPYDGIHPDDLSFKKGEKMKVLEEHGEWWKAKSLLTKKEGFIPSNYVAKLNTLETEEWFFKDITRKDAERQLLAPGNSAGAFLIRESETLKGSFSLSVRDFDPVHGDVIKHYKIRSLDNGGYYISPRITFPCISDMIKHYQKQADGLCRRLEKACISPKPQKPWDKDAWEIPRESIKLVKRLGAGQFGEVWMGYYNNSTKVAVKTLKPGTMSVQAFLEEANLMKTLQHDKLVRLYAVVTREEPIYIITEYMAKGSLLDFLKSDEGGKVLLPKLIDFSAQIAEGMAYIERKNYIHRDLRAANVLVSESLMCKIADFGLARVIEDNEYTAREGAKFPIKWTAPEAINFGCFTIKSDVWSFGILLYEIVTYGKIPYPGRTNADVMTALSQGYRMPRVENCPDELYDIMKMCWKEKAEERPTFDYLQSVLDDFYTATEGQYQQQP
Outline: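 Human Lyn (5-10 mU) phosphorylating poly(Glu,Tyr) 4:1 at 0.1 mg/ml with [γ-33P]ATP (concentration as required) in 50 mM Tris pH 7.5, 10 mM Mg acetate, 40 min at room temperature. Stopped with phosphoric acid; substrate-bound radioactivity counted on glass-fibre filter.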

EGFR (h) = EGFR (h) (Homo sapiens, UniProt P00533); test: EGFR human kinase assay (glass-fiber filter); settings: test concentration of 10^−6M; for inhibition at 1 µM: read-out: C4 score (inhibition of EGFR human)
Outline: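 Human EGFR (5-10 mU) phosphorylated 0.1 mg/ml poly(Glu, Tyr) 4:1 in 8 mM MOPS pH 7.0, 0.2 mM EDTA, 10 mM MnCl2, 10 mM MgAcetate with [γ-33P]ATP at unspecified concentration. Incubation lasted 40 minutes at room temperature, was stopped with phosphoric acid, and filter-bound 33P was counted by scintillation.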

CSK (h) = CSK (h) (Homo sapiens, UniProt P41240); test: CSK human kinase assay (glass-fiber filter); settings: test concentration of 10^−6M; for inhibition at 1 µM: read-out: C2 score (inhibition of CSK human)
Experimental: In the glass-fiber filter technology the activity of the kinase of interest is measured using an appropriate substrate that is incubated with the aforementioned kinase protein in the presence of (^33P) radiolabeled ATP. (^33P) Phosphorylation of the substrate is subsequently measured as radioactivity bound on a glass fiber-filter.
All kinases are pre-diluted to a 10× working concentration prior to addition into the assay. The composition of the dilution buffer for each kinase is detailed below.
In a final reaction volume of 25 μl, CSK (h) (5-10 mU) is incubated with 50 mM Tris pH 7.5, 0.1 mM EGTA, 0.1 mM Na3VO4, 0.1% β-mercaptoethanol, 0.1 mg/ml poly(Glu, Tyr) 4:1, 10 mM MnCl2, 10 mM MgAcetate and [γ-^33P-ATP] (specific activity approx. 500 cpm/pmol, concentration as required). The reaction is initiated by the addition of the MgATP mix. After incubation for 40 minutes at room temperature, the reaction is stopped by the addition of 5 μl of a 3% phosphoric acid solution. 10 μl of the reaction is then spotted onto a Filtermat A and washed three times for 5 minutes in 75 mM phosphoric acid and once in methanol prior to drying and scintillation counting.

GSK3B (h) = GSK3B (h) (Homo sapiens, UniProt P49841); test: GSK3β human kinase assay (glass-fiber filter); settings: test concentration of 10^−6M; for inhibition at 1 µM: read-out: C8 score (inhibition of GSK3β human)
GSK3B (h), sequence (P49841 whole entry): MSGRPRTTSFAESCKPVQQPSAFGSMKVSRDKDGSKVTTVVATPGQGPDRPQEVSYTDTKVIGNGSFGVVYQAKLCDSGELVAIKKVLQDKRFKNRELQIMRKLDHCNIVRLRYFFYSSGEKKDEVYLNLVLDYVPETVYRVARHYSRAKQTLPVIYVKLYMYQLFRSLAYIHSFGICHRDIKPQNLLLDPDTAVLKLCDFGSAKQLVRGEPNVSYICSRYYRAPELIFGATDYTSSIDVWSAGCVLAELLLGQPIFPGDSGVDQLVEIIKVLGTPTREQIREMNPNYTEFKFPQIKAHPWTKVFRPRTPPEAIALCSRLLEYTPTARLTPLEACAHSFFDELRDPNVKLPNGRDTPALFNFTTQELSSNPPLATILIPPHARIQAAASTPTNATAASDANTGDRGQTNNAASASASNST
Outline: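 Human GSK3β (5-10 mU) with 20 μM phospho GS2 peptide, [γ-^33P]ATP, 8 mM MOPS pH 7.0, 10 mM Mg acetate; 40 min at room temperature. Stopped with phosphoric acid; substrate phosphorylation read as filter-bound radioactivity by scintillation counting.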

Fms (h) = Fms (h) (Homo sapiens, UniProt P07333); test: Fms human kinase assay (glass-fiber filter); settings: test concentration of 10^−6M; for inhibition at 1 µM: read-out: C7 score (inhibition of Fms human)
Fms (h), sequence (P07333 20-972): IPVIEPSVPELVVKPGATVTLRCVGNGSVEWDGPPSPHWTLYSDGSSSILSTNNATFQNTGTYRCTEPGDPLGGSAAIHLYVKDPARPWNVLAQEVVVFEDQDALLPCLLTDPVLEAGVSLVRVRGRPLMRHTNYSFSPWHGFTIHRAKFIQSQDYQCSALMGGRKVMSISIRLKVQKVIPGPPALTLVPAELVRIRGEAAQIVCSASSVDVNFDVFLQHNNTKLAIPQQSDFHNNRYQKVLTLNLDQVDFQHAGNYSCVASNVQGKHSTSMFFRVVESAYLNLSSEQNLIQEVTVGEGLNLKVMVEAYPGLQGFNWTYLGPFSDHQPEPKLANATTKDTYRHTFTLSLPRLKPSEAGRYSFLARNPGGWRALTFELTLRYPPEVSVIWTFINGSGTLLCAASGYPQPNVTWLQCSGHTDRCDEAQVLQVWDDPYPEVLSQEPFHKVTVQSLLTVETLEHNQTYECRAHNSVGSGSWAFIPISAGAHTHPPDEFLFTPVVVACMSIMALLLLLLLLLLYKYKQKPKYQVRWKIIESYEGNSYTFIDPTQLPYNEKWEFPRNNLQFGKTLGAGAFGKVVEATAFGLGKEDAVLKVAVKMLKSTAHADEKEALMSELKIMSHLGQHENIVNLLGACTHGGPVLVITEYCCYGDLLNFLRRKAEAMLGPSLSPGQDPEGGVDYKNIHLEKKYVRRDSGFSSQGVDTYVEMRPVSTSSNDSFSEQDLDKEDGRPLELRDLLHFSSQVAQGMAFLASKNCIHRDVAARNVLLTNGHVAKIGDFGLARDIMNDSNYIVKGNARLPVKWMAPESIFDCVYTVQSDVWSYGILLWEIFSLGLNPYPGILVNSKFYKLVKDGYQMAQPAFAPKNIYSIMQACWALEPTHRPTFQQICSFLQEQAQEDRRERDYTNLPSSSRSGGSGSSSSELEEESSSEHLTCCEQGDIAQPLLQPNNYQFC
Outline: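 Radiometric filter-binding assay: Fms (5-10 mU) with 250 μM peptide substrate and [γ-33P]ATP in 8 mM MOPS pH 7.0, 10 mM Mg acetate, 40 min at room temperature. Reaction stopped with phosphoric acid; substrate-bound 33P counted on P30 filtermat.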

Lck (h) = Lck (h) (Homo sapiens, UniProt P06239); test: Lck human kinase assay (glass-fiber filter); settings: test concentration of 10^−6M; for inhibition at 1 µM: read-out: C9 score (inhibition of Lck human)
Lck (h), sequence (P06239 whole entry): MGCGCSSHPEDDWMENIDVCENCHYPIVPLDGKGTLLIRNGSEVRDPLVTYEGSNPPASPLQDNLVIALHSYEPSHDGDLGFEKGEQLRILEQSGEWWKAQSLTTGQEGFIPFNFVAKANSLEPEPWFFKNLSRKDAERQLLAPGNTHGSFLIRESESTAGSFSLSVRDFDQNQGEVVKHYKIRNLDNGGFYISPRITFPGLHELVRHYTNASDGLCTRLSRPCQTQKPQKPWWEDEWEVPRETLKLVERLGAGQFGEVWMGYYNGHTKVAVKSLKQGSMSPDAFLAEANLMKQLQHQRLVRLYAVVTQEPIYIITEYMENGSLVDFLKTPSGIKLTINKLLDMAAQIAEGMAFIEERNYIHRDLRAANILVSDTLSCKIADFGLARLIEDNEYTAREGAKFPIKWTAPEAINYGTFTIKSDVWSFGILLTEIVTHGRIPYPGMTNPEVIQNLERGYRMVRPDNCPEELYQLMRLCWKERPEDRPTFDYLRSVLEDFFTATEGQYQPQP
Outline: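 Kinase activity measured as transfer of (^33P) from radiolabeled MgATP to substrate, captured on P30 glass-fiber filtermat, washed in 75 mM phosphoric acid and methanol, then scintillation counted.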

Yes (h), sequence (P07947 whole entry): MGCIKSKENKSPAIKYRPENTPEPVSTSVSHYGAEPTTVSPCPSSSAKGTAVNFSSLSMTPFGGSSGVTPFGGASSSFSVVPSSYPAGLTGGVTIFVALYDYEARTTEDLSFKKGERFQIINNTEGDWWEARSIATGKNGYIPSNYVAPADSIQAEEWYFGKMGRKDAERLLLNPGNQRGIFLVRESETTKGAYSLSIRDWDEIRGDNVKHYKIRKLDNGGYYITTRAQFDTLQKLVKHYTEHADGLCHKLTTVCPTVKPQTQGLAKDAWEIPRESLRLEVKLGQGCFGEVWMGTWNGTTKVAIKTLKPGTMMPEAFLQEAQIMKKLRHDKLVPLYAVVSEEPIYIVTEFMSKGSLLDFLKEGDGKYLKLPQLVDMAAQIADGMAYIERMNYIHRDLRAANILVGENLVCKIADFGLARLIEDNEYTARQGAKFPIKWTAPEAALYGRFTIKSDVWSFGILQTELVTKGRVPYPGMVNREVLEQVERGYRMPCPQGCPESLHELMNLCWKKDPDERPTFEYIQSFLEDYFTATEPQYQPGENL

Row | inhibition at 1 µM (Yes (h)) | inhibition at 1 µM (Lyn (h)) | inhibition at 1 µM (EGFR (h)) | inhibition at 1 µM (CSK (h)) | inhibition at 1 µM (GSK3B (h)) | inhibition at 1 µM (Fms (h)) | inhibition at 1 µM (Lck (h)) | Compound | C11 score (inhibition of Yes human) (Yes (h)) | C10 score (inhibition of Lyn human) (Lyn (h)) | C4 score (inhibition of EGFR human) (EGFR (h)) | C2 score (inhibition of CSK human) (CSK (h)) | C7 score (inhibition of Fms human) (Fms (h)) | C9 score (inhibition of Lck human) (Lck (h)) | C8 score (inhibition of GSK3β human) (GSK3B (h))
1 | > 80% | > 80% | > 80% | 60 to 80% | 10 to 30% | 10 to 30% | > 80% | CC1(C)NC(=O)Cc2ccc(Cl)cc2Nc2cc(ncn2)Nc2ccc(OCCCN3CCOCC3)c(c2)OCCNC1=O [Compound 106, 1H,7H-6,2:8,12-dimetheno-13,1,3,5,7,16,19-benzoxahexaazacyclotricosine-17,20(14H)-dione, 24-chloro-15,16,18,19,21-pentahydro-18,18-dimethyl-11-[3-(4-morpholinyl)propoxy]-] |  |  |  |  |  |  | 
2 | > 80% | > 80% | > 80% | 30 to 60% | 10 to 30% | 10 to 30% | > 80% | COc1ccc2cc1OCCCNC(=O)C(C)(C)NC(=O)Cc1ccc(Cl)cc1Nc1cc(ncn1)N2 [Compound 105, 6,2:8,12-dimetheno-7H-13,1,3,5,7,17,20-benzoxahexaazacyclotetracosine-18,21-dione, 25-chloro-1,14,15,16,17,19,20,22-octahydro-11-methoxy-19,19-dimethyl-] |  |  |  |  |  |  | 
3 | 10 to 30% | 10 to 30% | 10 to 30% | 30 to 60% | 30 to 60% | 30 to 60% | 30 to 60% | N#Cc1cnc2nc1Nc1cccc(c1)OCC(=O)NCCCOc1cccc(c1)N2 [Compound 25, 14,21-dioxa-2,4,8,17,28-pentaazatetracyclo[20.3.1.1~3,7~.1~9,13~]octacosa-1(26),3,5,7(28),9,11,13(27),22,24-nonaene-6-carbonitrile, 16-oxo-] |  |  |  |  |  |  | 
4 |  |  |  |  |  |  |  | COc1ccc2cc1OCCCCCCOc1ccc(Br)cc1Nc1cc(ncn1)N2 [Compound 36, 1H,7H-2,6: 12,8-dimetheno-13,20,1,3,5,7-benzodioxatetraazacyclodocosine, 23-bromo-14,15,16,17,18,19-hexahydro-11-methoxy-] | 1 (Score 1=10-30% inhibition) | 3 (Score 3=60-80% inhibition) | 4 (Score 4=>80% inhibition) | 1 (Score 1=10-30% inhibition) | 1 (Score 1=10-30% inhibition) | 2 (Score 2=30-60% inhibition) | 
5 |  |  |  |  |  |  |  | 12,8-metheno-6,2-nitrilo-7H-13,1,5,7,16,19-benzoxapentaazacyclodocosine-3-carbonitrile, 23-chloro-1,14,15,16,17,18,19,20-octahydro-11-methoxy-19-methyl-17-oxo- [Compound 32] | 4 (Score 4=>80% inhibition) | 4 (Score 4=>80% inhibition) | 4 (Score 4=>80% inhibition) | 1 (Score 1=10-30% inhibition) | 1 (Score 1=10-30% inhibition) | 4 (Score 4=>80% inhibition) | 4 (Score 4=>80% inhibition)
6 |  |  |  |  |  |  |  | COc1ccc2cc1OCCCCCCCOc1ccc(Br)cc1Nc1cc(ncn1)N2 [Compound 37, 1H,7H-2,6: 12,8-dimetheno-14H-13,21,1,3,5,7-benzodioxatetraazacyclotricosine, 24-bromo-15,16,17,18,19,20-hexahydro-11-methoxy-] | 1 (Score 1=10-30% inhibition) | 2 (Score 2=30-60% inhibition) | 3 (Score 3=60-80% inhibition) | 1 (Score 1=10-30% inhibition) | 1 (Score 1=10-30% inhibition) | 2 (Score 2=30-60% inhibition) | 1 (Score 1=10-30% inhibition)
7 | 10 to 30% | 30 to 60% | 10 to 30% | 10 to 30% | 10 to 30% | 30 to 60% | 10 to 30% | N#Cc1cnc2nc1Nc1cccc(c1)OCC(=O)NCCCCOc1cccc(c1)N2 [Compound 26, 14,22-dioxa-2,4,8,17,29-pentaazatetracyclo[21.3.1.1~3,7~.1~9,13~]nonacosa-1(27),3,5,7(29),9,11,13(28),23,25-nonaene-6-carbonitrile, 16-oxo-] |  |  |  |  |  |  | 
8 | 10 to 30% | 10 to 30% | 30 to 60% | 10 to 30% |  | 10 to 30% | 10 to 30% | COc1ccc2c(c1)OCCCCCCOc1ccc(Cl)cc1Nc1cc(ncn1)N2 [Compound 34, 11H-6,10-metheno-5H-dibenzo[b,k][1,13,4,6,8,10]dioxatetraazacyclononadecine, 13-chloro-17,18,19,20,21,22-hexahydro-2-methoxy-] |  |  |  |  |  |  | 
9 | 60 to 80% | 10 to 30% |  | 10 to 30% | 60 to 80% | 30 to 60% | 30 to 60% | N#Cc1cnc2nc1Nc1cccc(c1)OCCCNC(=O)COc1cccc(c1)N2 [Compound 28, 14,21-dioxa-2,4,8,18,28-pentaazatetracyclo[20.3.1.1~3,7~.1~9,13~]octacosa-1(26),3,5,7(28),9,11,13(27),22,24-nonaene-6-carbonitrile, 19-oxo-] |  |  |  |  |  |  | 
10 | > 80% | > 80% | > 80% | 30 to 60% | 10 to 30% |  | > 80% | COc1ccc2cc1OCCNC(=O)CNC(=O)Cc1ccc(Cl)cc1Nc1cc(ncn1)N2 [Compound 103, 1H,7H-6,2:12,8-dimetheno-13,1,3,5,7,16,19-benzoxahexaazacyclotricosine-17,20(14H)-dione, 24-chloro-15,16,18,19,21-pentahydro-11-methoxy-] |  |  |  |  |  |  | 
11 |  |  |  |  |  |  |  | 1H,7H-2,6: 12,8-dimetheno-14H-13,19,1,3,5,7-benzodioxatetraazacycloheneicosine, 22-bromo-15,16,17,18-tetrahydro-11-methoxy- [Compound 35] | 3 (Score 3=60-80% inhibition) | 2 (Score 2=30-60% inhibition) | 2 (Score 2=30-60% inhibition) | 1 (Score 1=10-30% inhibition) | 2 (Score 2=30-60% inhibition) | 2 (Score 2=30-60% inhibition) | 1 (Score 1=10-30% inhibition)
